Results taken from ChEMBL document CHEMBL1155669, “Herbacic acid, a simple prototype of 5,5,5-trichloroleucine metabolites from the sponge Dysidea herbacea” (J Nat Prod, 2000).
Calls of active or inactive are those of the source.

Legend:
Assay type in all cases: functional, organism-based
Candida albicans [1] = test: Antifungal activity against fluconazole-resistant Candida albicans 96-489 at <100 ug/mL by microbroth dilution method
Candida albicans [2] = test: Antifungal activity against Candida albicans ATCC 4503 at <100 ug/mL by microbroth dilution method
Pichia kudriavzevii = test: Antifungal activity against Candida krusei at <100 ug/mL by microbroth dilution method
Nakaseomyces glabratus = test: Antifungal activity against Candida glabrata at <100 ug/mL by microbroth dilution method

Measured: Activity

C[C@@H](C/C=C/C(=O)N(C)[C@@H](C[C@H](C)C(Cl)(Cl)Cl)C(=O)O)C(Cl)(Cl)Cl
inactive: all assays above
